# Reference: US20050107386A1, “Methods of treating diseases and disorders by targeting multiple kinases” (priority 2003, published 2005)
# Assays:
# Assay type in all cases: biochemical
# PDGFRβ(h) = PDGFRβ(h) (Homo sapiens, UniProt P09619); assay: PDGFRβ(h) kinase assay; settings: 3 μM; percent of control kinase activity
# Procedure: (§1) Six compounds (presumptive single agents) were tested against a panel of 50 kinases. The results are presented in Table 2; numbers for each kinase indicate the percent of control kinase activity in the presence of a 3μM concentration of the indicated agent.
# (§2) Agents that target two or more different kinases are useful in the methods of the invention as described elsewhere herein. Such compounds may be identified, and their effect on certain kinases may be identified, using the assays briefly described below in Examples 4-83. Each of these assays was carried out as described in Davies et al., Biochem. J., 351:95-105 (2000). All assays were carried out at 10 μM ATP unless otherwise noted.
# (§3) In a final reaction volume of 25 μl, PDGFRβ (h) (5-10 mU) is incubated with 8 mM MOPS pH 7.0, 0.2 mM EDTA, 0.1 mg/ml poly(Glu, Tyr) 4:1, 10 mM MnCl2, 10 mM MgAcetate and [γ-^33P-ATP] (specific activity approx. 500 cpm/pmol, concentration as required). The reaction is initiated by the addition of Mg^2+ [γ-^33P-ATP]. After incubation for 40 minutes at room temperature, the reaction is stopped by the addition of 5 μl of a 3% phosphoric acid solution. 10 μl of the reaction is then spotted onto a Filtermat A and washed three times for 5 minutes in 75 mM phosphoric acid and once in methanol prior to drying and scintillation counting.
# PKCμ(h) = target: T1, PKCμ(h) (Homo sapiens, UniProt Q15139); assay: PKCμ(h) kinase assay; settings: 3 μM; percent of control kinase activity
# T1 sequence (Q15139 1-912): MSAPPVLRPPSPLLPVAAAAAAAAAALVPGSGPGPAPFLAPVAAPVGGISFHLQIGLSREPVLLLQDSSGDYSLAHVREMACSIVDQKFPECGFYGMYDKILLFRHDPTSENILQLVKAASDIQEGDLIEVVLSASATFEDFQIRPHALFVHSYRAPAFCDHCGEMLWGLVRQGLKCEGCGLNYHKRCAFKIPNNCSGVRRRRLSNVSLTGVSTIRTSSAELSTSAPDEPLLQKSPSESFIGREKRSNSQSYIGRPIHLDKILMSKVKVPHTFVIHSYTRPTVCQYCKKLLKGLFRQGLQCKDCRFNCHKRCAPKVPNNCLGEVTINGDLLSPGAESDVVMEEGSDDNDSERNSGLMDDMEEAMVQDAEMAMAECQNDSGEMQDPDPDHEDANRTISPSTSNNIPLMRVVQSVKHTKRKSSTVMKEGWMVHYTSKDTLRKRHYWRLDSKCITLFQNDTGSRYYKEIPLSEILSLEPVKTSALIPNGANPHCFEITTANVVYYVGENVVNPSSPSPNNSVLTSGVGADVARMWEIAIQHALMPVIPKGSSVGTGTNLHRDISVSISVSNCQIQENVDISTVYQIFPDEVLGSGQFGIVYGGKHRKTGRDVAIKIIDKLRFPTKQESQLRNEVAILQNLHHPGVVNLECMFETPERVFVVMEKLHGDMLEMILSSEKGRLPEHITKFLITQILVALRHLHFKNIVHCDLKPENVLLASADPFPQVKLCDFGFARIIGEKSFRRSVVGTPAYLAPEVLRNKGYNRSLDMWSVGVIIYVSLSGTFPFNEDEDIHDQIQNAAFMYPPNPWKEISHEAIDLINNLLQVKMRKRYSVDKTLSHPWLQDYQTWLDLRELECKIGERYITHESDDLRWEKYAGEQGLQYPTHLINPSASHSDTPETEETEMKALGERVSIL
# Procedure: as §1, §2
# MEK1(h) = MEK1(h) (Homo sapiens, UniProt Q02750); assay: MEK1(h) kinase assay; settings: for Inhibitory activity (% of control), MEK1(h): 3 μM, percent of control kinase activity
# Procedure: as §1, §2
# The reaction is initiated by the addition of the MgATP. After incubation for 40 minutes at room temperature, 5 μl of this incubation mix is used to initiate a MAPK2 (m) assay, which is described on […].
# Aurora-A(h) = target: T2, Aurora-A(h) (Homo sapiens, UniProt O14965); assay: Aurora-A(h) kinase assay; settings: 3 μM; percent of control kinase activity
# T2 sequence (O14965 1-403): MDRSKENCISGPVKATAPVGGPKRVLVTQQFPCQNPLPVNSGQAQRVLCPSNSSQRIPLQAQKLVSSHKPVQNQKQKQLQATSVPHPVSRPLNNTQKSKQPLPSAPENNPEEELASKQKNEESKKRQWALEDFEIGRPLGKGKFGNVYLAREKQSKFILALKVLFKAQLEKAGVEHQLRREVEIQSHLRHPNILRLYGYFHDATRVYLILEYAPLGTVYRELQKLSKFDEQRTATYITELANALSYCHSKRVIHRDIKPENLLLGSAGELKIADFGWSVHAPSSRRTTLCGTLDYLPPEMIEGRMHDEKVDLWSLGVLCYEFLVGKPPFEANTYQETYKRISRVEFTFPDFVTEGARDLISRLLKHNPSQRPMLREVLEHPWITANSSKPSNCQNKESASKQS
# Procedure: as §1, §2
# SGK(h) = target: T3, SGK(h) (Homo sapiens, UniProt O00141); assay: SGK(h) kinase assay; settings: 3 μM; percent of control kinase activity
# T3 sequence (O00141 1-431): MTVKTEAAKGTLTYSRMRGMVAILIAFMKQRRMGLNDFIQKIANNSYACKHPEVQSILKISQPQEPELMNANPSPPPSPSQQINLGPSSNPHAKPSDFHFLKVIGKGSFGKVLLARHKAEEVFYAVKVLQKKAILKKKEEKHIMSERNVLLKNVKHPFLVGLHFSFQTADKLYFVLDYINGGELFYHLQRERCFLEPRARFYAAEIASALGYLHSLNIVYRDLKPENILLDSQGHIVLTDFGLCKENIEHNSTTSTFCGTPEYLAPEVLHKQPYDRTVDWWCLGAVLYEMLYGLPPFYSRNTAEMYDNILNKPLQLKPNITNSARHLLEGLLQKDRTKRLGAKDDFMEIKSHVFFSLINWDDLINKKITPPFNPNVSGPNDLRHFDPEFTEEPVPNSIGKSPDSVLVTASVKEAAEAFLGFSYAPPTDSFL
# Procedure: as §1, §2
# as §3, with “SGK(h)” for “PDGFRβ (h)”, “30 μM […] (SEQ ID NO:2),” for “0.1 mg/ml poly(Glu, Tyr) 4:1, 10 mM MnCl2,”, “Mg^2+[γ-^33P-ATP].” for “Mg^2+ [γ-^33P-ATP].”, “P30 filtermat” for “Filtermat A”
# PDGFRβ(h), sequence (P09619 33-1106): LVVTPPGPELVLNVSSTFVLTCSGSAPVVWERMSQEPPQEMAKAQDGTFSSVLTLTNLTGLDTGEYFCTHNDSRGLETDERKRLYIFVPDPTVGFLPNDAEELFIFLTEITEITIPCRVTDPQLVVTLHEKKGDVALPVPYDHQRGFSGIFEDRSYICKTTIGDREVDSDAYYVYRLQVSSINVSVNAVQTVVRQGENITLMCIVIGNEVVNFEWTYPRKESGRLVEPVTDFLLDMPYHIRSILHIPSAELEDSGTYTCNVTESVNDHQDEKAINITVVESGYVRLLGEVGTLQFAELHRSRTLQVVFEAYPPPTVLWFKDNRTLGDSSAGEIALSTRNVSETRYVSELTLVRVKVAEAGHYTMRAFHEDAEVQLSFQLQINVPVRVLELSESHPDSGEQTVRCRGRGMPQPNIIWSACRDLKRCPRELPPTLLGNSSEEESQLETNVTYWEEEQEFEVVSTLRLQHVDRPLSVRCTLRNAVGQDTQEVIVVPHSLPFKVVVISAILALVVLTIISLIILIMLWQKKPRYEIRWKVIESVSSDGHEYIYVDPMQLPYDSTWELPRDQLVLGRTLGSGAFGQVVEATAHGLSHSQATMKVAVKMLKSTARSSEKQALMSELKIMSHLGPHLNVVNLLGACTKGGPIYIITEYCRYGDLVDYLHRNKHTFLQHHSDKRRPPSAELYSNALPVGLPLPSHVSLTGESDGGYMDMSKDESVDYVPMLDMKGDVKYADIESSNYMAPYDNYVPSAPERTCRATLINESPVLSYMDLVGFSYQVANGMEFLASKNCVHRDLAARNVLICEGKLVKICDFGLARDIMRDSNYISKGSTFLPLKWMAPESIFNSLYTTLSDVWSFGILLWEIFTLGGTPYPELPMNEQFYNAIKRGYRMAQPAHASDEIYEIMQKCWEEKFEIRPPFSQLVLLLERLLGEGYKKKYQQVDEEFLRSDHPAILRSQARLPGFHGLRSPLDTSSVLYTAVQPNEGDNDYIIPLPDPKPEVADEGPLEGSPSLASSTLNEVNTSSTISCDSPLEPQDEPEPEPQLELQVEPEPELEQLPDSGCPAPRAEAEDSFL
# MEK1(h), sequence (Q02750 whole entry): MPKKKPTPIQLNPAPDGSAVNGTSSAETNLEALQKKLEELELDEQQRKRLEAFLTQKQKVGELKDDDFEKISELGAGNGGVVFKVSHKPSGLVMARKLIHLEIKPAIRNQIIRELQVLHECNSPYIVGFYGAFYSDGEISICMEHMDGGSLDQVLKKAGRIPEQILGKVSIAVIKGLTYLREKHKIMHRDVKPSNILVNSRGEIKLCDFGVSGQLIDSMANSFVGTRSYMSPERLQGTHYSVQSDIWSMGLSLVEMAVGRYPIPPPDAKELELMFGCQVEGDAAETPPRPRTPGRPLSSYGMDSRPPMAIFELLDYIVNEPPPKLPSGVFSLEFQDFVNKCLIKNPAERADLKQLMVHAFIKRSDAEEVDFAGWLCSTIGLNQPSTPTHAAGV
SMILES,"Inhibitory activity (% of control), PDGFRβ(h) (PDGFRβ(h))","Inhibitory activity (% of control), PKCμ(h) (PKCμ(h))","Inhibitory activity (% of control), MEK1(h) (MEK1(h))","Inhibitory activity (% of control), Aurora-A(h) (Aurora-A(h))","Inhibitory activity (% of control), SGK(h) (SGK(h))","inhibitory activity against MEK1, in words (MEK1(h); summary of Table 2)"
"CCN1CCC[C@H]1COc1ccc2cc(-c3n[nH]c4ccc(-c5nc(CC(C)(C)C)n[nH]5)cc34)ccc2c1 [CC005, 2-[((2s)-1-ethylpyrrolidin-2-yl)methoxy]-6-{5-[3-(2,2-Dimethylpropyl)(1H-1,2,4,-triazol-5-yl)](1H-indazol-3-yl)}naphthalene]",20 % of control,2 % of control,2 % of control,0 % of control,4 % of control,
"COc1ccc2cc(-c3n[nH]c4ccc(-c5n[nH]c(CN6CCOCC6)n5)cc34)ccc2c1 [CC001, 3-(6-Methoxynaphthalen-2-yl)-5-(5-Morpholin-4-Ylmethyl-1H-[1,2,4]Triazol-3-yl)-1H-Indazole]",94 % of control,6 % of control,4 % of control,7 % of control,56 % of control,
"CC(C)(C)Cc1nc(-c2ccc3[nH]nc(-c4ccc5cc(OCc6ccccn6)ccc5c4)c3c2)n[nH]1 [CC004, 5-[5-(2,2-Dimethyl-propyl)-1H-[1,2,4]triazol-3-yl]-3-[6-(pyridine-2-ylmethoxy)-naphthalen-2-yl]-1H-indazole]",91 % of control,34 % of control,11 % of control,7 % of control,33 % of control,good inhibitory activity
